Reference: patent US7589078B2, “Anti-viral nucleoside analogs and methods for treating viral infections, especially HIV infections” (Yale University, priority 2003, dated 2009)
“Also recorded” adds a separate entry of the source. Read-outs that look alike come from different tables or passages of the source.

Tests used:
HIV = settings: Maag et al (29), O-Yang et al (32); cited from earlier work
thymidine kinase (TK-1) [1] = biological target: T1, thymidine kinase (TK-1) (Homo sapiens, UniProt P04183); assay: Monophosphorylation of analogs by thymidine kinase; assay type: biochemical; parameters: phosphorylated by thymidine kinase (TK-1) from CEM cells; endogenous in cells; settings: for Relative Vmax: 250 μM dThd or analog, 2.4 mM ATP, 0.07 unit TK-1, 37° C., 285 min, dThd = 100
T1 sequence (P04183 1-234): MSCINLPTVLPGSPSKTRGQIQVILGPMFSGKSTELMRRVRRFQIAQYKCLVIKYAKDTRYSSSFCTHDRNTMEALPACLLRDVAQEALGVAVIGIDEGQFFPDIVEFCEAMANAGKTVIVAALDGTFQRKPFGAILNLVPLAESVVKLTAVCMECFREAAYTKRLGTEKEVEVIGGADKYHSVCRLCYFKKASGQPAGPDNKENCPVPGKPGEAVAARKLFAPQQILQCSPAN
Method: Monophosphorylation of Analogs by Thymidine Kinase: All the analogs were tested for their ability to be phosphorylated by thymidine kinase (TK-1) from CEM cells. This enzyme was purified by an affinity column technique developed in this laboratory (7). […] At the end of the incubation time the reaction was stopped by the addition of 3 parts cold HPLC grade methanol. After incubating on ice for at least 10 min. the methanol insoluble material is precipitated by centrifugation and the methanol soluble supernatants were placed into clean microfuge tubes. These samples were brought to dryness in a Speedvac Centrifuge. The samples were dissolved in water and separated on a Shimatzu HPLC model SCL 10Avp using a gradient of water to 300 mM potassium phosphate and a Whatman 10/25 particle SAX column. Km and relative Vmax studies were done in a similar fashion, using the same mixture and different amounts of substrate and enzyme.

thymidine kinase (TK-1) [2] = biological target: T1, thymidine kinase (TK-1); assay: Thymidine kinase assay with added nucleoside ([14C]-dThd to dTMP); settings: [14C]-dThd 25 μM, added nucleoside 250 μM; compared to reactions with no additions
Method: After two additional washes in ethanol, the discs were dried and placed in scintillation vials that contained 5 ml SafeScint Scintillation Cocktail (American Bioanalytical, Natick, Mass.). The amount of radioactivity, which represents the amount of dTMP formed, was quantitated in a Beckman LS5000TD Scintillation Counter (Beckman Instruments Inc., Palo Alto, Calif.).

[3] = system: mtDNA content of CEM cells; assay: Mitochondrial DNA content in CEM cells (Southern blot); assay type: cell-based; settings: for IC50: four days, read-out: Mitochondrial DNA Content ID50
Method: Mitochondrial DNA: The effect of nucleoside analogs on mtDNA content was assessed as described previously (2). […] Cells treated with drugs at various concentrations either as single agents or in combination were grown for four days. Cells were then harvested, treated with proteinase K and DNase free RNase. Extracts were applied to nylon membranes and hybridized with an mtDNA probe. After stripping the membrane the load was normalized by rehybridizing the membrane with an Alu probe. Blots were quantitated with a Molecular Dynamics personal densitometer SI with ImageQuaNT analysis software.

CEM cells = assay: Cellular toxicity in CEM cells (cell counts); settings: for IC50: Homo sapiens, CCRF-CEM, 96 h, read-out: Cellular ID50
Method: The basic procedures are similar. The cells are seeded a low concentration, then serial dilutions of test compound are added. […] After 48 to 96 h incubation at 37° C. in a 5% CO2 humidified incubator the assay is ended. The drug treated samples are compared to the untreated controls. This is accomplished in suspension cell lines by counting cell numbers either with a hemocytometer or by using a Coulter Counter.
The numbers in parentheses represent the mean and standard deviations of percentage of untreated CEM control cells at the concentration indicated.

[4] = biological target: T2, thymidine phosphorylase (TP) (Homo sapiens, UniProt P19971); assay: Thymidine phosphorylase assay; assay type: in vitro ADME; settings: partially purified TP from human liver
T2 construct: using a partially purified prepartion of human liver extract (28) as a source of the thymidine phosphorylase (TP); from tissue; host or cells: human liver extract, partially purified
T2 sequence (P19971 11-482): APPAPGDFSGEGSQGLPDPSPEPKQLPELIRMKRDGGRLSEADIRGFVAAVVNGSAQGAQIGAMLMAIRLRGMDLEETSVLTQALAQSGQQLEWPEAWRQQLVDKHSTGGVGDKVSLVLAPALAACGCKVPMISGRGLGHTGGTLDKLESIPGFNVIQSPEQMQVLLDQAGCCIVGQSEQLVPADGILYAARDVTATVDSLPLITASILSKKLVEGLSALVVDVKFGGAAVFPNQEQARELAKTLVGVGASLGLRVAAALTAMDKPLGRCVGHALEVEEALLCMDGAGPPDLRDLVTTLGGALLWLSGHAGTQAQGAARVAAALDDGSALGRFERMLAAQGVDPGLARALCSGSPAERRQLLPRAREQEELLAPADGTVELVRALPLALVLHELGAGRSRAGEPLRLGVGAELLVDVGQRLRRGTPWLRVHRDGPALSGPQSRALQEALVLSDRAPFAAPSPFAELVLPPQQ
Method: Thymidine Phosphorylase Assays: Nucleoside analogs (100 μM) were incubated in 75 mM potassium phosphate buffer pH 7.3 at 37° C. using a partially purified prepartion of human liver extract (28) as a source of the thymidine phosphorylase (TP). After incubation, the reaction was stopped by the addition of trichloroacetic acid to a final concentration of 15%. The samples were then incubated on ice. After the acid insoluble components were removed by centrifugation, the supernatant was neutralized by two extractions with one half volume of trioctylamine/freon (45:55). The aqueous supernatants were examined by HPLC using the Beckman ODS column method, as described in Acid Stability Studies.

HIV-1 strain IIIB [5] = assay: Antiviral activity in MT-2 cells infected with HIV-1 strain IIIB (MTT); assay type: cell-based
Method: Determination of antiviral activity: Compounds were tested in MT-2 cells infected with HIV-1 strain IIIB essentially as described previously (31). […]. Calculations of the percent protection and isobologram combination studies are described (12).

Acid stability study = assay type: physicochemical; settings: 1N HCl, pH 1, 37° C., 2.5 h, HPLC
Method: Acid stability studies: Nucleoside samples were mixed with 1N HCl and incubated at 37° C. for 2.5 h. Then the samples were examined by HPLC using a Bechman ODS column employing a gradient of water to 80% methanol.

HIV-1 strain IIIB [6] = settings: MT-2 cells; EC50 reported previously (17); read-out: EC50: effective concentration required to achieve 50% protection from HIV in MT-2 cells; cited from earlier work
MT-2 cells = assay: Cellular toxicity, MT-2 cell growth; assay type: cell-based; settings: for IC50: Homo sapiens, MT2, MT-2 cells, read-out: ID50: concentration required to inhibit MT-2 cell growth by 50%
Source text: (§1) The basic procedures are similar.

H-9 cells = assay: Toxicity in H-9 cells alone and in combination (Coulter Counter); assay type: cell-based; settings: for Percent of Untreated Controls: H-9 cells, 48 h
Source text: as §1

[7] = system: CEM cellular extract supplemented with partially purified TK-1 and recombinant human dTMP kinase; assay: Phosphorylation to triphosphate in CEM cellular extract with TK-1 and dTMP kinase; assay type: biochemical; settings: unpublished results
[8] = substrate: Cc1cn([C@H]2C=C[C@@H](CO)O2)c(=O)[nH]c1=O; assay: purified protein, by the assay type; settings: other: phosphorylation by human cytoplasmic thymidine kinase; pH 7.5; 37.0 °C
[9] = substrate: C#C[C@@]1(CO)C=C[C@H](n2cc(C)c(=O)[nH]c2=O)O1; assay: Monophosphorylation of analogs by thymidine kinase; assay type: biochemical; settings: other: phosphorylation by human cytoplasmic thymidine kinase; pH 7.5
Method: Monophosphorylation of Analogs by Thymidine Kinase: All the analogs were tested for their ability to be phosphorylated by thymidine kinase (TK-1) from CEM cells. […] At the end of the incubation time the reaction was stopped by the addition of 3 parts cold HPLC grade methanol. After incubating on ice for at least 10 min. the methanol insoluble material is precipitated by centrifugation and the methanol soluble supernatants were placed into clean microfuge tubes. These samples were brought to dryness in a Speedvac Centrifuge. The samples were dissolved in water and separated on a Shimatzu HPLC model SCL 10Avp using a gradient of water to 300 mM potassium phosphate and a Whatman 10/25 particle SAX column. Km and relative Vmax studies were done in a similar fashion, using the same mixture and different amounts of substrate and enzyme.

Molecule: Cc1cn([C@H]2C=C[C@](CO)(N=[N+]=[N-])O2)c(=O)[nH]c1=O [4′-azido D4T]
- Anti-HIV activity as described by others (HIV): inactive against HIV at non-toxic levels

Molecule: C#C[C@@]1(CO)C=C[C@H](n2cc(C)c(=O)[nH]c2=O)O1 [4′-ethynyl D4T, 2′,3′-didehydro-3′-deoxy-4′-ethynylthymidine]
- Relative Vmax (thymidine kinase (TK-1) [1]): 3.8 ± 0.8
- Rate of phosphorylation by TK-1, in words (thymidine kinase (TK-1) [1]; purified human TK-1): superior to D4T; also recorded: twice as fast as D4T
- Percent of Activity (thymidine kinase (TK-1) [2]): 83.9 ± 6.1%
- IC50 ([3]; Homo sapiens, CCRF-CEM, 96 h): > 100 µM
- Mitochondrial DNA content, percentage of untreated CEM control cells ([3]; at 100 μM): 94 ± 4%
- IC50 [3]: 100 µM
- Cell count, percentage of untreated CEM control cells (CEM cells; CEM cells, at 100 μM): 77 ± 16%
- IC50 (CEM cells): > 100 µM
- Break down by thymidine phosphorylase ([4]; 100 μM nucleoside, 37° C., FIG. 11): below the detection level
- EC50 (HIV-1 strain IIIB [5]; Human immunodeficiency virus 1, MT2, MT-2/HIV IIIB system, FIG. 10, read-out: EC50 for single agents (isobologram study)): 0.5 µM
- Anti-HIV activity compared with D4T (HIV-1 strain IIIB [5]; MT-2/IIIB anti HIV-1 system, FIG. 8): more effective against HIV
- Effect of addition of dCyd on the antiviral activity (HIV-1 strain IIIB [5]; dCyd 10 μM in the presence of THU 5 μM, FIG. 9): no significant effect
- Effect of addition of dThd on the antiviral activity (HIV-1 strain IIIB [5]; dThd 10 μM and 1 μM added to standard antiviral assay, FIG. 9): decreased the antiviral effect
- Antiviral interaction in combination (isobologram) (HIV-1 strain IIIB [5]; in combination with 3TC): synergistic
- Antiviral interaction in combination (isobologram) (HIV-1 strain IIIB [5]; in combination with AZT (data not shown)): only additive
- Antiviral interaction in combination (isobologram) (HIV-1 strain IIIB [5]; in combination with LFd4C): synergistic
- Antiviral interaction in combination (isobologram) (HIV-1 strain IIIB [5]; in combination with ddI (data not shown)): only additive
- Stability at pH 1 (Acid stability study): No detectable breakdown
- EC50 (HIV-1 strain IIIB [6]): 0.25 ± 0.14 µM
- IC50 (MT-2 cells): > 256 µM
- Toxicity compared with D4T (MT-2 cells; MT-2/IIIB system): less toxic than the parental compound D4T
- Toxic interaction on cell growth in combination with 3TC and LFd4C (H-9 cells; H9 cells, 48 h assay): no significant increase in toxic interactions
- Percent of Untreated Controls (H-9 cells; 25 μM 4′-ethynyl D4T plus 5 μM 3TC): 98 ± 2%
- Percent of Untreated Controls (H-9 cells; 25 μM 4′-ethynyl D4T plus 5 μM LFd4C): 62 ± 3%
- Percent of Untreated Controls (H-9 cells; 25 μM 4′-ethynyl D4T plus 10 μM LFd4C): 58 ± 4%
- Percent of Untreated Controls (H-9 cells; 25 μM 4′-ethynyl D4T plus 20 μM 3TC): 88 ± 3%
- Percent of Untreated Controls (H-9 cells; 25 μM 4′-ethynyl D4T plus 100 μM 3TC): 85 ± 3%
- Percent of Untreated Controls (H-9 cells; 25 μM 4′-ethynyl D4T, no additive): 97 ± 7%
- Percent of Untreated Controls (H-9 cells; 50 μM 4′-ethynyl D4T plus 5 μM 3TC): 99 ± 10%
- Percent of Untreated Controls (H-9 cells; 50 μM 4′-ethynyl D4T plus 5 μM LFd4C): 72 ± 5%
- Percent of Untreated Controls (H-9 cells; 50 μM 4′-ethynyl D4T plus 10 μM LFd4C): 64 ± 5%
- Percent of Untreated Controls (H-9 cells; 50 μM 4′-ethynyl D4T plus 20 μM 3TC): 87 ± 6%
- Percent of Untreated Controls (H-9 cells; 50 μM 4′-ethynyl D4T plus 100 μM 3TC): 84 ± 6%
- Percent of Untreated Controls (H-9 cells; 50 μM 4′-ethynyl D4T, no additive): 102 ± 6%

Molecule: Cc1cn([C@H]2C=C[C@@H](CO)O2)c(=O)[nH]c1=O [D4T, 2′,3′-Didehydro-3′-deoxythymidine, reference compound]
- Relative Vmax (thymidine kinase (TK-1) [1]): 2.1 ± 0.7
- Rate of conversion to the monophosphate form (thymidine kinase (TK-1) [1]; purified human TK-1): approximately 2% of dThd
- Percent of Activity (thymidine kinase (TK-1) [2]): 106.3 ± 7.7%
- IC50 ([3]; Homo sapiens, CCRF-CEM, 96 h): 9.3 ± 1.4 µM
- IC50 (CEM cells): 60 ± 18 µM
- Break down by thymidine phosphorylase, times slower than dThd [4]: at least 10 times
- EC50 (HIV-1 strain IIIB [5]; Human immunodeficiency virus 1, IIIB, MT2, read-out: EC50: effective concentration required to achieve 50% protection from HIV in MT-2 cells): 1.3 ± 0.4 µM
- EC50 (HIV-1 strain IIIB [5]; Human immunodeficiency virus 1, IIIB, MT2, read-out: EC50 for single agents (isobologram study)): 1.4 µM
- Stability at pH 1 (Acid stability study): No detectable breakdown
- Phosphorylation to the triphosphate metabolite [7]: more efficiently phosphorylated to the triphosphate metabolite than 4′-ethynyl D4T
- IC50 (MT-2 cells): 98 ± 10.8 µM

B1: thymidine kinase (TK-1) (Homo sapiens) (protein)
chain: MSCINLPTVLPGSPSKTRGQIQVILGPMFSGKSTELMRRVRRFQIAQYKCLVIKYAKDTRYSSSFCTHDRNTMEALPACLLRDVAQEALGVAVIGIDEGQFFPDIVEFCEAMANAGKTVIVAALDGTFQRKPFGAILNLVPLAESVVKLTAVCMECFREAAYTKRLGTEKEVEVIGGADKYHSVCRLCYFKKASGQPAGPDNKENCPVPGKPGEAVAARKLFAPQQILQCSPAN
notes: phosphorylated by thymidine kinase (TK-1) from CEM cells; endogenous in cells
- Km [8]: 133 µM
- Km [9]: 52 µM
